Results reported in patent US6172104A, “Dicationic dibenzofuran and dibenzothiophene compounds and methods of use thereof” (priority 1999, dated 2001).
Where a name gives a salt, the structure may show the parent alone.

Assays:
[1] = tested on: Pneumocystis carinii; assay: animal or person; assay type: in vivo, Pneumocystis carinii; rat; conditions: for response vs control in vivo at 10 µmol/kg: 10.0 μmol/kg/day iv via tail vein, rats (4 rats for 3, 4, 9)
Source text: The activity is expressed as the percent of cysts counted in treated groups as compared to untreated controls. All of the compounds in the initial screen were given by tail vein injection at a dose of 10 μmol/kg/day for 14 days. The test compounds were compared for efficacy with the standard anti-PCP compound, pentamidine, at one-half the dose of pentamidine. […] Among the 2,8-substituted derivatives, the diamidine 1 and the bis-N-isopropylamidine 2 were very potent. A dose response study was performed upon compound 2.
^c Expressed as μmol/kg/day, given iv via tail vain to at least 8
rats once daily for 14 days, unless stated otherwise.
^e Cysts/g lung counts were 69.18 (× 10^6) for the saline
control group and 0.51 (× 10^6) for the pentamidine group. These
scores were pooled across experiments involving compounds 1-9. Saline: n =
55; pentamidine: n = 52.
^g Doses given to 4 rats.
^h Doses given by oral gavage.

[2] = tested on: Pneumocystis carinii; assay: Activity against Pneumocystis carinii pneumonia (PCP) in the rat model, dibenzofuran dications (Example 2, Table 2); assay type: in vivo; conditions: for response vs control in vivo at 33 µmol/kg / response vs control in vivo at 22 µmol/kg / response vs control in vivo at 10 µmol/kg: Pneumocystis carinii, 336 h, read-out: Pneumocystis carinii % Saline control ± std error; for response vs control in vivo at 33 µmol/kg: 33.0 μmol/kg/day by oral gavage; for response vs control in vivo at 22 µmol/kg / response vs control in vivo at 10 µmol/kg: iv
Source text: Compounds 1-3 and 5-7 in the initial screen were given once daily by tail vein injection at a dose of 10 μmol/kg/day for 14 days, with activities compared to pentamidine at approximately one-half the effective iv dose of pentamidine, which is 22 μmol/kg/day.
Compounds 4 and 8 were synthesized to test if diamidoximes would be effective prodrugs of the dibenzofuran diamidines. Both the diamidoximes were screened for anti-P. carinii activity at 10 μmol/kg/day by tail vein injection and 33 μmol/kg/day by oral gavage for 14 days. […] Further studies of diamidoxime metabolism are being performed using cultured cell lines and cell-free enzyme preparations to understand more about the metabolic mechanisms of prodrug activation.
^a Dose units were μmol/kg/day. Each compound was administered to 8
rats once daily for 14 days. Doses marked with (*) were by oral gavage,
all others were i.v. via tail vein.
^c Cysts/g lung counts for the saline and pentamidine control groups
were pooled across experiments. Scores for each compound were reported as
% of the pooled saline scores. Saline: 47.53 × 10^6 cysts/g lung
(n = 45). Petamidine: 0.38 × 10^6 cysts/g lung (n = 42).

[3] = tested on: Pneumocystis carinii; conditions: rat, in vivo; cited from earlier work
[4] = tested on: whole cells; assay: Conversion of diamidoxime to diamidine by whole cells (Example 2); assay type: in vitro ADME; conditions: preliminary results
[5] = Pneumocystis carinii, in Rattus norvegicus, iv, 336 h, once daily 14 days, read-out: Pneumocystis carinii % Saline control ± std error
[6] = 10.0 μmol/kg/day i.v. via tail vein, once daily 14 days, 8 rats

`c1cc2sc3ccc(C4=NCCN4)cc3c2cc1C1=NCCN1` [Compound 5] gave a response vs control in vivo at 10 µmol/kg [1, 5] of 28 ± 12.7%.

`O=S1(=O)c2ccc(C3=NCCN3)cc2-c2cc(C3=NCCN3)ccc21` [Compound 6] gave a response vs control in vivo at 10 µmol/kg [1, 5] of 93.5 ± 9.58%.

For `N/C(=N\O)c1ccc(OCCCCCOc2ccc(/C(N)=N/O)cc2)cc1` [Pentamidoxime, reference compound], the response vs control in vivo at 33 µmol/kg ([2]; once daily 14 days, 8 rats) is listed as 13.8 ± 9.12%, the response vs control in vivo at 22 µmol/kg ([2]; 22.0 μmol/kg/day i.v. via tail vein, once daily 14 days, 8 rats) is listed as 0.11 ± 0.02% and the “prodrug behaviour (in words)” value [3] is listed as “an effective prodrug”.

`NC(=NO)c1ccc2c(c1)oc1cc(C(N)=NO)ccc12` [Compound 8 (Example 2), 3,7-Di(A-hydroxylamidino)dibenzofuran dihydrochloride] showed a response vs control in vivo at 33 µmol/kg ([2]; once daily 14 days, 8 rats) of 150 ± 54% and a response vs control in vivo at 10 µmol/kg [2, 6] of 166 ± 109%.

For `N=C(N)c1ccc2c(c1)oc1cc(C(=N)N)ccc12` [Compound 5 (Example 2), 3,7-Diamidinodibenzofuran dihydrochloride], the response vs control in vivo at 10 µmol/kg [2, 6] was 183 ± 38.3%.

In the case of `CC(C)NC(=N)c1ccc2oc3ccc(C(=N)NC(C)C)cc3c2c1` [Compound 3 (Example 2), 2,8-Di(N-isopropylamidino)dibenzofuran dihydrochloride], the response vs control in vivo at 10 µmol/kg [2, 6] is reported as 0.5 ± 0.27%.

In the case of `N=C(N)c1ccc2oc3ccc(C(=N)N)cc3c2c1` [Compound 1 (Example 2), 2,8-Diamidinodibenzofuran dihydrochloride], the response vs control in vivo at 10 µmol/kg [2] is reported as 7.15 ± 3.81% and the response vs control in vivo at 22 µmol/kg [2] is reported as 0.1 ± 0.02%.

In the case of `c1cc2c(cc1C1=NCCN1)oc1cc(C3=NCCN3)ccc12` [Compound 6 (Example 2), 3,7-Di(2-imidazolinyl)dibenzofuran dihydrochloride], the response vs control in vivo at 10 µmol/kg [2, 6] is reported as 220 ± 39.3%.

Compound `N=C(N)c1ccc2sc3ccc(C(=N)N)cc3c2c1` [Compound 1] has a response vs control in vivo at 10 µmol/kg [1, 5] of 0.1 ± 0.03%.

In the case of `N=C(N)c1ccc2c(c1)sc1cc(C(=N)N)ccc12` [Compound 7], the response vs control in vivo at 10 µmol/kg [1, 5] is reported as 36 ± 9.59%.

In the case of `Cl.Cl.N=C(NO)c1ccc2c(c1)sc1cc(C(=N)NO)ccc12` [Compound 9 (Example 1), 3,7-Bis(N-hydroxyamidino)dibenzothiophene dihydrochloride], the response vs control in vivo at 10 µmol/kg [1, 5] is reported as 112 ± 76.5%, the response vs control in vivo at 33 µmol/kg ([1]; Pneumocystis carinii, in Rattus norvegicus, po, 336 h, 33.0 μmol/kg/day by oral gavage, once daily 14 days, 4 rats, read-out: Pneumocystis carinii % Saline control ± std error) is reported as 45.6 ± 26.1% and the “anti-PCP activity by both routes (in words)” value ([1]; intravenous and oral administration) is reported as “inactive by both intravenous and oral administration”.

In the case of `c1cc2oc3ccc(C4=NCCN4)cc3c2cc1C1=NCCN1` [Compound 2 (Example 2), 2,8-Di(2-imidazolinyl)dibenzofuran dihydrochloride], the response vs control in vivo at 10 µmol/kg [2, 6] is reported as 97.4 ± 31.9%.

With `N=C(N)c1ccc(OCCCCCOc2ccc(C(=N)N)cc2)cc1` [Pentamidine, reference compound] the response vs control in vivo at 22 µmol/kg ([1]; Pneumocystis carinii, in Rattus norvegicus, iv, 336 h, read-out: Pneumocystis carinii % Saline control ± std error) was 0.74 ± 0.12%, the Cysts/g lung counts ([1]; pentamidine group pooled across experiments, n = 52, 22.0 μmol/kg/day iv) was 0.51 × 10^6 cysts/g lung and the response vs control in vivo at 22 µmol/kg [2] was 0.8 ± 0.17%. For the same compound, the Cysts/g lung counts ([2]; pentamidine control group pooled across experiments, n = 42) was 0.38 × 10^6 cysts/g lung.

Work on `CC(C)NC(=N)c1ccc2sc3ccc(C(=N)NC(C)C)cc3c2c1` [Compound 2] yielded a response vs control in vivo at 0.1 µmol/kg ([1]; Pneumocystis carinii, in Rattus norvegicus, iv, 336 h, 0.1 μmol/kg/day iv, once daily 14 days, rats, read-out: Pneumocystis carinii % Saline control ± std error) of 94.8 ± 28.3%, a response vs control in vivo at 1 µmol/kg ([1]; Pneumocystis carinii, in Rattus norvegicus, iv, 336 h, 1.0 μmol/kg/day iv, once daily 14 days, rats, read-out: Pneumocystis carinii % Saline control ± std error) of 12.8 ± 4.02% and a response vs control in vivo at 2.5 µmol/kg ([1]; Pneumocystis carinii, in Rattus norvegicus, iv, 336 h, 2.5 μmol/kg/day iv, once daily 14 days, rats, read-out: Pneumocystis carinii % Saline control ± std error) of 0.19 ± 0.1%. For the same compound, the response vs control in vivo at 5 µmol/kg ([1]; Pneumocystis carinii, in Rattus norvegicus, iv, 336 h, 5.0 μmol/kg/day iv, once daily 14 days, rats, read-out: Pneumocystis carinii % Saline control ± std error) was 0.04 ± 0.01% and the response vs control in vivo at 10 µmol/kg [1, 5] was 0.01 ± 0.01%.

Work on `CC(C)NC(=N)c1ccc2c(c1)sc1cc(C(=N)NC(C)C)ccc12` [Compound 8] yielded a response vs control in vivo at 10 µmol/kg [1, 5] of 0.04 ± 0.02%.

With `CC(C)NC(=N)c1ccc2c(c1)oc1cc(C(=N)NC(C)C)ccc12` [Compound 7 (Example 2), 3,7-Di(isopropylamidino)dibenzofuran dihydrochloride] the response vs control in vivo at 10 µmol/kg [2, 6] was 0.28 ± 0.27%.

In the case of `Cl.Cl.N=C(NO)c1ccc2oc3ccc(C(=N)NO)cc3c2c1` [Compound 4 (Example 2), 2,8-Di(N-hydroxylamidino)dibenzofuran dihydrochloride], the response vs control in vivo at 33 µmol/kg ([2]; once daily 14 days, 8 rats) is reported as 45.1 ± 21.6%, the response vs control in vivo at 10 µmol/kg [2, 6] is reported as 15.8 ± 14.6% and the “conversion of diamidoxime to diamidine (in words)” value [4] is reported as “less efficient than conversion of pentamidoxime to pentamidine by whole cells”.

Compound `NC(=NO)c1ccc2sc3ccc(C(N)=NO)cc3c2c1` [Compound 3] has a response vs control in vivo at 10 µmol/kg [1, 5] of 1.3 ± 0.84%.
